Patent US12077531B2, “Imidazopyridinone compound” (KISSEI PHARMACEUTICAL CO., LTD., priority 2018, dated 2024)
pIC50: −log10 of the molar value. Where two headings read alike, the source gives them in different places.

Experiments:
[1] = molecular target: human PHD2184-418 (Homo sapiens (Human), UniProt Q9GZT9); assay: PHD2 inhibitory test (fluorescence polarization, binding between PHD2 and HIF-1α); conditions: human PHD2184-418, FITC-labeled HIF-1α556-574, 2 μM 2-oxoglutarate, 37° C. 60 minutes
human PHD2184-418, sequence (Q9GZT9 184-418): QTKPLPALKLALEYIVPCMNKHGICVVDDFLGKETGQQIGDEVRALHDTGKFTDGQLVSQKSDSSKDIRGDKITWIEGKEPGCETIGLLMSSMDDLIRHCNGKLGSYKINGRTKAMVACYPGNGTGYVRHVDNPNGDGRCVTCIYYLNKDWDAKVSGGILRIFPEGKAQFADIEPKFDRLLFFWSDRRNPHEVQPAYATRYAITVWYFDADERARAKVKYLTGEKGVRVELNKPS
In short: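 N-His-tagged human PHD2 (residues 184–418, E. coli-expressed) was preincubated with compound, then FITC-Ahx-HIF-1α556-574 peptide was added in pH 7.4 HEPES buffer with 10 μM MnCl2 and 2 μM 2-oxoglutarate. After 60 min at 37 °C, fluorescence polarization (ex 470/em 530 nm) was read. Inhibition was calculated against compound-free wells.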

[2] = test system: TNBS induced colitis model rat; assay: Therapeutic effect in TNBS induced colitis model rat (intestinal permeability of FITC); format: in vivo; conditions: po, 72 h, 3 mg/kg orally once a day for 3 days, SD rats, mean, test compounds-free group 0, TNBS-untreated group 100, read-out: Inhibition (%): suppressive rate on the intestinal permeability
Experimental: Test Example 2 Therapeutic Effect in Colitis Model
(1) TNBS Induced Colitis Model Rat
SD rats: 8-weeks-old male SLC (Japan SLC) were used. Under pentobarbital anesthesia, 300 μL of TNBS (28 mg/mL) prepared by 50% ethanol was administered at a point 8 cm from anus in large intestine to cause inflammation. To the solvent-treated group was administrated 300 μL of 50% ethanol. Animals were fasted for 48 hours prior to administration of TNBS. Test compounds (3 mg/kg) prepared by 0.05% methylcellulose solution were orally administered once a day from next day, and it was administered for a total of 3 days. After administering for 3 days, 50 mg/kg FITC was orally administered at 4 hours after administration. Blood samples were collected from jugular vein under isoflurane anesthesia after 4 hours. The serum was centrifuged and fluorescence intensity was detected by PHERAstar FSX (BMG Labtech) to measure the concentration of FITC permeating into circulating blood through the mesentery. The suppressive rate on the intestinal permeability of test compounds was calculated based on the value of test compounds-free group as 0 and the value of TNBS-untreated group as 100.

[3] = Rat PK study: concentration of compounds in large intestine tissue and plasma; format: in vivo; conditions: male, SD, 3 mg/kg oral; for Kp at 8 h: large intestine tissue / plasma, read-out: C/P: ratio of the above Colon and Plasma; for AUC / Cmax: non-fasted; for AUC: read-out: AUC: area under the plasma test compound concentration-time curve (converted); for Cmax: read-out: Cmax: maximum plasma concentration of test compounds in the case of oral administration
Experimental: Test Example 3 Concentration of Compounds in Large Intestine Tissue
Test compounds (3 mg/kg/5 mL) prepared by 0.05% methylcellulose were orally administered to non-fasted rats (SD, 8-weeks-old, male, Japan SLC). Blood samples were collected from jugular vein at 0.25, 0.5, 1, 2, 4, 6 and 8 hours after the administration. Laparotomy was performed under isoflurane anesthesia and large intestine was isolated. Collected distal large intestine (about 5 cm) was cut open, and then the large intestine was washed with saline on a dish. After washing, the large intestine was minced by a small scissors. About 150 mg thereof was moved to tube. To the tube was added 100 μL of saline, the mixture was homogenized using shake master (1000 rpm×30 minutes). Samples were prepared by the addition with quadruple volume of saline as final volume. The concentrations of the test compound in large intestine tissue and plasma were measured through a quantitative analysis using liquid chromatography-mass spectrometry (LC/MS).

[4] = large intestine tissue (distal large intestine), read-out: Colon: concentrations of the test compound in large intestine tissue after 8 hours
[5] = plasma, read-out: Plasma: plasma test compound concentration after 8 hours

| SMILES | pIC50 [1] | inhibition in vivo at 3 mg/kg [2] | concentration at 8 h [3, 4] | Kp at 8 h [3] | concentration at 8 h [3, 5] | AUC ([3]; plasma) | Cmax ([3]; plasma) |
| --- | --- | --- | --- | --- | --- | --- | --- |
| Cn1ccnc1CN1CC[C@H](n2c(=O)n(-c3ccc(-c4ccc(C(=O)O)cc4)cc3O)c3cccnc32)C1 [Example 39, (S)-3′-Hydroxy-4′-(3-(1-((1-methyl-1H-imidazol-2-yl)methyl)pyrrolidin-3-yl)-2-oxo-2,3-dihydro-1H-imidazo[4,5-b]pyridin-1-yl)-[1,1′-biphenyl]-4-carboxylic acid] | 6.47 | 95% | 214 ng/g | 71 | 3 ng/mL | 34.8 ng·h/mL | 7 ng/mL |
| Cn1ccnc1CN1CC[C@H](n2c(=O)n(-c3ccc(-c4ccc(C(=O)O)cc4)c(O)c3)c3cccnc32)C1 [Example 40, (S)-2′-Hydroxy-4′-(3-(1-((1-methyl-1H-imidazol-2-yl)methyl)pyrrolidin-3-yl)-2-oxo-2,3-dihydro-1H-imidazo[4,5-b]pyridin-1-yl)-[1,1′-biphenyl]-4-carboxylic acid] | 6.12 | 84% | 209 ng/g | > 209 | < 1 ng/mL |  | < 1 ng/mL |
| Cn1ccnc1CN1CC[C@H](n2c(=O)n(-c3ccc(-c4ccc(C(=O)O)cc4)nc3)c3cccnc32)C1 [Example 41, (S)-4-(5-(3-(1-((1-Methyl-1H-imidazol-2-yl)methyl)pyrrolidin-3-yl)-2-oxo-2,3-dihydro-1H-imidazo[4,5-b]pyridin-1-yl)pyridin-2-yl)benzoic acid] | 5.84 | 74% |  |  |  |  |  |
| O=C(O)c1ccc(-c2ccc(-n3c(=O)n([C@H]4CCN(Cc5cc(C(=O)O)ccn5)C4)c4ncccc43)cc2)cc1 [Example 43, (S)-2-((3-(1-(4′-Carboxy-[1,1′-biphenyl]-4-yl)-2-oxo-1,2-dihydro-3H-imidazo[4,5-b]pyridin-3-yl)pyrrolidin-1-yl)methyl)isonicotinic acid] | 6.70 | 59% | 84 ng/g | 42 | 2 ng/mL | 35.2 ng·h/mL | 8 ng/mL |
| O=C(O)c1ccc(-c2ccc(-n3c(=O)n([C@H]4CCN(Cc5cc(C(=O)O)ccn5)C4)c4ncccc43)cc2O)cc1 [Example 45, (S)-2-((3-(1-(4′-Carboxy-2-hydroxy-[1,1′-biphenyl]-4-yl)-2-oxo-1,2-dihydro-3H-imidazo[4,5-b]pyridin-3-yl)pyrrolidin-1-yl)methyl)isonicotinic acid] | 6.57 | 51% | 87 ng/g | > 87 | < 1 ng/mL | 6.68 ng·h/mL | 2 ng/mL |
| O=C(O)c1ccc(-c2ccc(-n3c(=O)n([C@H]4CCN(Cc5cc(C(=O)O)ccn5)C4)c4ncccc43)cn2)cc1 [Example 46, (S)-2-((3-(1-(6-(4-Carboxyphenyl)pyridin-3-yl)-2-oxo-1,2-dihydro-3H-imidazo[4,5-b]pyridin-3-yl)pyrrolidin-1-yl)methyl)isonicotinic acid] | 6.82 | 63% | 174 ng/g | > 174 | < 1 ng/mL | 5.23 ng·h/mL | 3 ng/mL |
| Cn1ccnc1CN1CC[C@H](n2c(=O)n(-c3ccc(-c4ccc(C(=O)O)cc4)cc3)c3cccnc32)C1 [Example 47, (S)-4′-(3-(1-((1-Methyl-1H-imidazol-2-yl)methyl)pyrrolidin-3-yl)-2-oxo-2,3-dihydro-1H-imidazo[4,5-b]pyridin-1-yl)-[1,1′-biphenyl]-4-carboxylic acid] | 6.39 | 85% | 317 ng/g | 18 | 18 ng/mL | 334 ng·h/mL | 60 ng/mL |
| Cn1c(C(=O)O)cnc1CN1CC[C@H](n2c(=O)n(-c3ccc(-c4ccccc4)cc3)c3ccc(C(=O)NCC(=O)O)nc32)C1 [Example 77, (S)-2-((3-(1-([1,1′-Biphenyl]-4-yl)-5-((carboxymethyl)carbamoyl)-2-oxo-1,2-dihydro-3H-imidazo[4,5-b]pyridin-3-yl)pyrrolidin-1-yl)methyl)-1-methyl-1H-imidazole-5-carboxylic acid] | 6.21 |  |  |  |  |  |  |
| Cn1c(C(=O)O)cnc1CN1CC[C@H](n2c(=O)n(-c3ccc(C(=O)NCC(=O)O)nc3)c3cccnc32)C1 [Example 78, (S)-2-((3-(1-(6-((Carboxymethyl)carbamoyl)pyridin-3-yl)-2-oxo-1,2-dihydro-3H-imidazo[4,5-b]pyridin-3-yl)pyrrolidin-1-yl)methyl)-1-methyl-1H-imidazole-5-carboxylic acid] | 4.96 |  |  |  |  |  |  |
| Cn1c(C#N)cnc1CN1CC[C@H](n2c(=O)n(-c3ccc(-c4ccncc4)cc3)c3cccnc32)C1 [Example 80, (S)-1-Methyl-2-((3-(2-oxo-1-(4-(pyridin-4-yl)phenyl)-1,2-dihydro-3H-imidazo[4,5-b]pyridin-3-yl)pyrrolidin-1-yl)methyl)-1H-imidazole-5-carbonitrile] | 4.18 |  |  |  |  |  |  |
| Cn1c(C(=O)O)cnc1CN1CC[C@H](n2c(=O)n(-c3ccc(-c4ccc(O)cc4)cc3)c3cccnc32)C1 [Example 82, (S)-2-((3-(1-(4′-Hydroxy-[1,1′-biphenyl]-4-yl)-2-oxo-1,2-dihydro-3H-imidazo[4,5-b]pyridin-3-yl)pyrrolidin-1-yl)methyl)-1-methyl-1H-imidazole-5-carboxylic acid] | 6.89 | 96% |  |  |  |  |  |
| Cn1c(C(=O)O)cnc1CN1CC[C@H](n2c(=O)n(-c3ccc(-c4ccc(C(=O)O)cc4)nc3)c3cccnc32)C1 [Example 85, (S)-2-((3-(1-(6-(4-Carboxyphenyl)pyridin-3-yl)-2-oxo-1,2-dihydro-3H-imidazo[4,5-b]pyridin-3-yl)pyrrolidin-1-yl)methyl)-1-methyl-1H-imidazole-5-carboxylic acid] |  | 101% | 164 ng/g | > 164 | < 1 ng/mL |  |  |
| Cn1c(C(=O)O)cnc1CN1CC[C@H](n2c(=O)n(-c3ccc(-c4ccccc4)cc3)c3cccnc32)C1 [Example 86, (S)-2-((3-(1-([1,1′-Biphenyl]-4-yl)-2-oxo-1,2-dihydro-3H-imidazo[4,5-b]pyridin-3-yl)pyrrolidin-1-yl)methyl)-1-methyl-1H-imidazole-5-carboxylic acid] | 6.57 |  |  |  |  |  |  |
| Cn1c(C(=O)O)cnc1CN1CC[C@H](n2c(=O)n(-c3ccccc3)c3cccnc32)C1 [Example 87, (S)-1-Methyl-2-((3-(2-oxo-1-phenyl-1,2-dihydro-3H-imidazo[4,5-b]pyridin-3-yl)pyrrolidin-1-yl)methyl)-1H-imidazole-5-carboxylic acid] | 5.40 |  |  |  |  |  |  |
| Cn1c(C(=O)O)cnc1CN1CC[C@@H](n2c(=O)n(-c3ccc(-c4ccc(C(=O)O)cc4)nc3)c3cccnc32)C1 [Example 88, (R)-2-((3-(1-(6-(4-Carboxyphenyl)pyridin-3-yl)-2-oxo-1,2-dihydro-3H-imidazo[4,5-b]pyridin-3-yl)pyrrolidin-1-yl)methyl)-1-methyl-1H-imidazole-5-carboxylic acid] | 6.57 |  |  |  |  |  |  |
| Cc1cccnc1CN1CC[C@H](n2c(=O)n(-c3ccc(-c4ccc(O)cc4)cc3)c3cccnc32)C1 [Example 89, (S)-1-(4′-Hydroxy-[1,1′-biphenyl]-4-yl)-3-(1-((3-methylpyridin-2-yl)methyl)pyrrolidin-3-yl)-1,3-dihydro-2H-imidazo[4,5-b]pyridin-2-one] | 5.50 |  |  |  |  |  |  |
| Cc1cccnc1CN1CC[C@H](n2c(=O)n(-c3ccc(-c4ccncc4)cc3)c3cccnc32)C1 [Example 90, (S)-3-(1-((3-Methylpyridin-2-yl)methyl)pyrrolidin-3-yl)-1-(4-(pyridin-4-yl)phenyl)-1,3-dihydro-2H-imidazo[4,5-b]pyridin-2-one] | 5.13 |  |  |  |  |  |  |
